In patent US8487093B2, “β-lactamase inhibitors” (Merck Sharp & Dohme Corp., priority 2008, dated 2013):
Where two headings read alike, the source gives them in different places.

Columns and labels:
[1] = target: AmpC (P. aeruginosa) (Pseudomonas aeruginosa (strain ATCC 15692 / DSM 22644 / CIP 104116 / JCM 14847 / LMG 12228 / 1C / PRS 101 / PAO1), UniProt P24735); assay: biochemical
Description: The Class C enzyme activities were measured in the presence of the test inhibitor in spectrophotometric assay against the commercially available substrate, nitrocefin. The enzyme AmpC (P. aeruginosa.), and the substrate, were dissolved in 100 mM KH2PO4 buffer (pH 7). The buffer also contains 0.005% BSA. The test inhibitor was dissolved in DMSO and diluted 1:20 in the assay, resulting in a final concentration range of 50 μM to 0.0002 μM. In a 96-well microplate, the test inhibitor was incubated with the beta-lactamase enzyme for 40 minutes at ambient temperature, the substrate solution was added, and the incubation continued for another 40 minutes. […] The IC50 value was determined from semi logarithmic plots of enzyme inhibition versus inhibitor concentration, with a curve generated using a 4-parameter fit.

[2] = target: KPC-2 (K. pneumoniae) (Klebsiella pneumoniae, UniProt Q9F663); assay: biochemical; settings: Table 3; read-out: K.p. KPC-2 IC50
KPC-2 (K. pneumoniae), sequence (Q9F663 25-293 limits assumed): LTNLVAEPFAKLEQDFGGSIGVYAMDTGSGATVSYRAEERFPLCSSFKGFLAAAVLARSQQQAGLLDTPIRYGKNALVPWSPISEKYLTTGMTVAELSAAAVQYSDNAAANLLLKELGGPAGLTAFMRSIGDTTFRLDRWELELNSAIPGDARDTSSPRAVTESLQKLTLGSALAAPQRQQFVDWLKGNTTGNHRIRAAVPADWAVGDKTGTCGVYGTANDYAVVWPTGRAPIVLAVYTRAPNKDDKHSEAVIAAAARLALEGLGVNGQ

[3] = Table 3, read-out: P.a. AmpC IC50

AmpC (P. aeruginosa), sequence (P24735 27-397): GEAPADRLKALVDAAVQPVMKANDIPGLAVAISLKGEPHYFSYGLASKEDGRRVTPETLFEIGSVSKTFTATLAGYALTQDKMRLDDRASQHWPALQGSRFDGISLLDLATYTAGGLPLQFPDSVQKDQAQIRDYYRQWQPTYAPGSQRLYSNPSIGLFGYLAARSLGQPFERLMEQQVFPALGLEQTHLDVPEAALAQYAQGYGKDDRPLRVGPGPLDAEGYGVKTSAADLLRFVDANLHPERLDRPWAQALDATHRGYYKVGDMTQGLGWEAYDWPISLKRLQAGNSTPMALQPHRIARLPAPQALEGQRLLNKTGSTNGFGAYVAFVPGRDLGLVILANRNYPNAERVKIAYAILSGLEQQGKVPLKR

Row | Structure (SMILES) | IC50 [1] | IC50 [2] | IC50 [1, 3]
1 | O=C(OC1CCNCC1)[C@@H]1CC[C@@H]2CN1C(=O)N2OS(=O)(=O)O [Example 93] | 170 nM | 9 nM | –
2 | O=C(O[C@@H]1CCNC1)[C@@H]1CC[C@@H]2CN1C(=O)N2OS(=O)(=O)O [Example 94] | 3000 nM | 40 nM | –
3 | O=C(O[C@H]1CCNC1)[C@@H]1CC[C@@H]2CN1C(=O)N2OS(=O)(=O)O [Example 95] | 210 nM | 21 nM | –
4 | O=C(OC1CNC1)[C@@H]1CC[C@@H]2CN1C(=O)N2OS(=O)(=O)O [Example 96] | – | 18 nM | 600 nM
5 | O=C(O[C@@H]1CCNC[C@@H]1F)[C@@H]1CC[C@@H]2CN1C(=O)N2OS(=O)(=O)O [Example 97] | – | 26 nM | 49 nM
6 | O=C(O[C@H]1CCNC[C@H]1F)[C@@H]1CC[C@@H]2CN1C(=O)N2OS(=O)(=O)O [Example 98] | – | 9 nM | 46 nM
7 | O=C(O[C@@H]1CCNC[C@H]1F)[C@@H]1CC[C@@H]2CN1C(=O)N2OS(=O)(=O)O [Example 99] | – | 8 nM | 40 nM
8 | O=C(O[C@H]1CCNC[C@@H]1F)[C@@H]1CC[C@@H]2CN1C(=O)N2OS(=O)(=O)O [Example 100] | – | 4 nM | 33 nM
9 | O=C(O[C@H]1CNCC[C@@H]1F)[C@@H]1CC[C@@H]2CN1C(=O)N2OS(=O)(=O)O [Example 101] | 81 nM | 15 nM | –
10 | O=C(O[C@H]1CNCC[C@H]1F)[C@@H]1CC[C@@H]2CN1C(=O)N2OS(=O)(=O)O [Example 102] | 76 nM | 4 nM | –
11 | O=C(O[C@@H]1CNC[C@@H]1F)[C@@H]1CC[C@@H]2CN1C(=O)N2OS(=O)(=O)O [Example 103] | 39 nM | 3 nM | –
12 | O=C(O[C@H]1CNC[C@H]1F)[C@@H]1CC[C@@H]2CN1C(=O)N2OS(=O)(=O)O [Example 104] | 38 nM | 24 nM | –
13 | O=C(O[C@@H]1CNC[C@H]1F)[C@@H]1CC[C@@H]2CN1C(=O)N2OS(=O)(=O)O [Example 105] | 200 nM | 13 nM | –
14 | O=C(O[C@H]1CNC[C@@H]1F)[C@@H]1CC[C@@H]2CN1C(=O)N2OS(=O)(=O)O [Example 106] | 200 nM | 10 nM | –
15 | O=C(O[C@H]1CNOC1)[C@@H]1CC[C@@H]2CN1C(=O)N2OS(=O)(=O)O [Example 107] | – | 11 nM | 39 nM
16 | O=C(O[C@@H]1CNOC1)[C@@H]1CC[C@@H]2CN1C(=O)N2OS(=O)(=O)O [Example 108] | – | 11 nM | 62 nM
17 | O=C(OC1CNNC1)[C@@H]1CC[C@@H]2CN1C(=O)N2OS(=O)(=O)O [Example 109] | – | 62 nM | 700 nM
18 | NCCOC(=O)[C@@H]1CC[C@@H]2CN1C(=O)N2OS(=O)(=O)O [Example 110] | – | 30 nM | 610 nM
19 | O=C(OCCN1CCCCC1)[C@@H]1CC[C@@H]2CN1C(=O)N2OS(=O)(=O)O [Example 111] | – | 20 nM | 1200 nM
20 | O=C(OCCC1CCNCC1)[C@@H]1CC[C@@H]2CN1C(=O)N2OS(=O)(=O)O [Example 112] | 165 nM | 13 nM | –
21 | CC1(COC(=O)[C@@H]2CC[C@@H]3CN2C(=O)N3OS(=O)(=O)O)CCNCC1 [Example 113] | – | 8 nM | 36 nM
22 | O=C(OCC1CNCCCO1)[C@@H]1CC[C@@H]2CN1C(=O)N2OS(=O)(=O)O (stereo partly drawn) [Example 114] | – | 11 nM | 340 nM
23 | NCc1ccc(OC(=O)[C@@H]2CC[C@@H]3CN2C(=O)N3OS(=O)(=O)O)cc1 [Example 115] | – | 2 nM | 24 nM
24 | CC(=O)Oc1ccc(C(=O)NCCOC(=O)[C@@H]2CC[C@@H]3CN2C(=O)N3OS(=O)(=O)O)cc1OC(C)=O [Example 116] | – | 70 nM | 440 nM
